Where two headings read alike, the source gives them in different places.
Columns and labels:
[1] = test system: phosphorylated 4E-BP1 Thr37/46 (p4E-BP1 Thr37/46), mTORC1 activity, PC3 cells; test: mTOR target engagement assay, immunofluorescent cell-based, p4E-BP1 Thr37/46 readout (mTORC1 activity); conditions: Homo sapiens, read-out: p4E-BP1 Thr37/46 IC50
Outline: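 Read-out is fluorescence intensity of immunostained p4E-BP1 Thr37/46 in fixed PC3 cells, fitted to a logistic curve for IC50 with DMSO-only wells as top. Cells had been exposed to serial compound dilutions for ninety minutes at 37° C in 5% FBS medium with 0.25% DMSO.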

[2] = test system: phosphorylated AKT Ser473 (pAKT S473), mTORC2 activity, PC3 cells; test: mTOR target engagement assay, immunofluorescent cell-based, pAKT S473 readout (mTORC2 activity)
Outline: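 After blocking, cells were stained overnight at 4 °C with anti-pAKT S473 antibody, then a fluorescent secondary; inhibition was read as reduced fluorescence intensity.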

[3] = Homo sapiens, PC-3, Table 3-1, PC3 cells
[4] = PC-3, PC3 cells, compound treatment ninety minutes at 37° C.
[5] = Homo sapiens, PC-3, PC3 cells, compound treatment ninety minutes at 37° C.

Cn1nnc(-c2ccc(-c3cnn4c(N)c(S(C)(=O)=O)c([C@@H]5C[C@H]6CC[C@@H](C5)N6C(=O)c5nnc[nH]5)nc34)cn2)n1 [Compound 3.42, ((1R,3a,5S)-3-(7-amino-3-(6-(2-methyl-2H-tetrazol-5-yl)pyridin-3-yl)-6-(methylsulfonyl)pyrazolo[1,5-a]pyrimidin-5-yl)-8-azabicyclo[3.2.1]octan-8-yl)(4H-1,2,4-triazol-3-yl)methanone]
IC50 ([1]; PC-3, Table 3-1, PC3 cells): 1000 to 10000 nM
IC50 [2, 3]: 100 to 1000 nM

CS(=O)(=O)c1c([C@@H]2C[C@H]3CC[C@@H](C2)N3C(=O)c2ccnc(N)n2)nc2c(-c3ccc(-c4ccccc4)nc3)cnn2c1N [Compound 3.143, ((1R,3s,5S)-3-(7-amino-6-(methylsulfonyl)-3-(6-phenylpyridin-3-yl)pyrazolo[1,5-a]pyrimidin-5-yl)-8-azabicyclo[3.2.1]octan-8-yl)(2-aminopyrimidin-4-yl)methanone]
IC50 ([1]; PC-3, Table 3-1, PC3 cells): 100 to 1000 nM
IC50 [2, 3]: 100 to 1000 nM

Cc1nnc(C(=O)N2[C@@H]3CC[C@H]2C[C@H](c2nc4c(-c5cn[nH]c5)cnn4c(N)c2S(C)(=O)=O)C3)[nH]1 [Compound 3.115, ((1R,3s,5S)-3-(7-amino-6-(methylsulfonyl)-3-(1H-pyrazol-4-yl)pyrazolo[1,5-a]pyrimidin-5-yl)-8-azabicyclo[3.2.1]octan-8-yl)(5-methyl-4H-1,2,4-triazol-3-yl)methanone]
IC50 ([1]; PC-3, Table 3-1, PC3 cells): > 10000 nM
IC50 [2, 3]: > 10000 nM

CNC(=O)Nc1ccc(-c2cnn3c(N)cc([C@@H]4C[C@H]5CC[C@@H](C4)N5C(=O)c4nnc[nH]4)nc23)cc1 [Compound 8.80, 1-(4-(5-((1R,3s,5S)-8-(4H-1,2,4-triazole-3-carbonyl)-8-azabicyclo[3.2.1]octan-3-yl)-7-aminopyrazolo[1,5-a]pyrimidin-3-yl)phenyl)-3-methylurea]
IC50 ([1]; PC-3, PC3 cells): > 10000 nM
IC50 ([2]; Homo sapiens, PC-3, PC3 cells): > 10000 nM

Cc1nnc(C(=O)N2[C@@H]3CC[C@H]2C[C@H](c2nc4c(-c5ccc(-c6ccc(F)cc6F)nc5)cnn4c(N)c2S(C)(=O)=O)C3)[nH]1 [Compound 3.127, ((1R,3s,5S)-3-(7-amino-3-(6-(2,4-difluorophenyl)pyridin-3-yl)-6-(methylsulfonyl)pyrazolo[1,5-a]pyrimidin-5-yl)-8-azabicyclo[3.2.1]octan-8-yl)(5-methyl-4H-1,2,4-triazol-3-yl)methanone]
IC50 ([1]; PC-3, Table 3-1, PC3 cells): 1 to 100 nM
IC50 [2, 3]: 100 to 1000 nM

CC(=O)c1c(N2C3CCC2CN(C(=O)c2nnc[nH]2)C3)nc2c(-c3ccc(-c4ccccc4)nc3)cnn2c1N [Compound 8.5, 1-(5-(3-(4H-1,2,4-triazole-3-carbonyl)-3,8-diazabicyclo[3.2.1]octan-8-yl)-7-amino-3-(6-phenylpyridin-3-yl)pyrazolo[1,5-a]pyrimidin-6-yl)ethanone]
IC50 ([1]; PC-3, PC3 cells): 1000 to 10000 nM
IC50 ([2]; Homo sapiens, PC-3, PC3 cells): 100 to 1000 nM

N#Cc1ncc(-c2cnn3c(N)cc([C@@H]4C[C@H]5CC[C@@H](C4)N5C(=O)c4nnc[nH]4)nc23)cn1 [Compound 8.95, 5-(5-((1R,3s,5S)-8-(4H-1,2,4-triazole-3-carbonyl)-8-azabicyclo[3.2.1]octan-3-yl)-7-aminopyrazolo[1,5-a]pyrimidin-3-yl)pyrimidine-2-carbonitrile]
IC50 ([1]; PC-3, PC3 cells): > 10000 nM
IC50 ([2]; Homo sapiens, PC-3, PC3 cells): > 10000 nM

COc1ccc(-c2ccc(-c3cnn4c(N)c(C(C)=O)c([C@H]5C[C@H]6CC[C@@H](C5)N6C(=O)c5nnc[nH]5)nc34)cn2)cc1F [Compound 1.1.54, 1-(5-((1R,3r,5S)-8-(4H-1,2,4-triazole-3-carbonyl)-8-azabicyclo[3.2.1]octan-3-yl)-7-amino-3-(6-(3-fluoro-4-methoxyphenyl)pyridin-3-yl)pyrazolo[1,5-a]pyrimidin-6-yl)ethanone]
IC50 [1, 4]: 100 to 1000 nM
IC50 [2, 5]: 100 to 1000 nM

CNC(=O)N1[C@@H]2CC[C@H]1C[C@H](c1nc3c(-c4ccc(-c5ncc[nH]5)nc4)cnn3c(N)c1C(C)=O)C2 [Compound 6.24, (1R,3s,5S)-3-(3-(6-(1H-imidazol-2-yl)pyridin-3-yl)-6-acetyl-7-aminopyrazolo[1,5-a]pyrimidin-5-yl)-N-methyl-8-azabicyclo[3.2.1]octane-8-carboxamide]
IC50 ([1]; PC-3, Table 6-1, PC3 cells): 1 to 100 nM
IC50 ([2]; Homo sapiens, PC-3, Table 6-1, PC3 cells): 1 to 100 nM

CS(=O)(=O)c1c([C@@H]2C[C@H]3CC[C@@H](C2)N3C(=O)c2nnc[nH]2)nc2c(-c3cnn(-c4ccccc4)c3)cnn2c1N [Compound 3.97, ((1R,3s,5S)-3-(7-amino-6-(methylsulfonyl)-3-(1-phenyl-1H-pyrazol-4-yl)pyrazolo[1,5-a]pyrimidin-5-yl)-8-azabicyclo[3.2.1]octan-8-yl)(4H-1,2,4-triazol-3-yl)methanone]
IC50 ([1]; PC-3, Table 3-1, PC3 cells): 1 to 100 nM
IC50 [2, 3]: 1 to 100 nM

N#Cc1c([C@@H]2C[C@H]3CC[C@@H](C2)N3C(=O)c2nc[nH]n2)nc2c(-c3ccc(-c4ccccc4)nc3)cnn2c1N [Compound 5.2, 5-((1R,3s,5S)-8-(1H-1,2,4-triazole-3-carbonyl)-8-azabicyclo[3.2.1]octan-3-yl)-7-amino-3-(6-phenylpyridin-3-yl)pyrazolo[1,5-a]pyrimidine-6-carbonitrile]
IC50 [1, 4]: 1 to 100 nM
IC50 [2, 5]: 1 to 100 nM

CC(=O)c1c([C@@H]2C[C@H]3CC[C@@H](C2)N3C(=O)C(C)(CO)CO)nc2c(-c3ccc(-c4ccccc4)nc3)cnn2c1N [Compound 1.1.1, 1-((1R,3s,5S)-3-(6-acetyl-7-amino-3-(6-phenylpyridin-3-yl)pyrazolo[1,5-a]pyrimidin-5-yl)-8-azabicyclo[3.2.1]octan-8-yl)-3-hydroxy-2-(hydroxymethyl)-2-methylpropan-1-one]
IC50 [1, 4]: 100 to 1000 nM
IC50 [2, 5]: 100 to 1000 nM

Nc1c(C2CC2)c(C2CC3CCC(C2)N3C(=O)c2nnc(O)[nH]2)nc2c(-c3ccc(-c4ccccc4)nc3)cnn12 [Compound 8.106, ((1R,3s,5S)-3-(7-amino-6-cyclopropyl-3-(6-phenylpyridin-3-yl)pyrazolo[1,5-a]pyrimidin-5-yl)-8-azabicyclo[3.2.1]octan-8-yl)(5-hydroxy-4H-1,2,4-triazol-3-yl)methanone]
IC50 ([1]; PC-3, PC3 cells): 1 to 100 nM
IC50 ([2]; Homo sapiens, PC-3, PC3 cells): 1 to 100 nM

CS(=O)(=O)c1c([C@@H]2C[C@H]3CC[C@@H](C2)N3C(=O)c2ccn[nH]2)nc2c(-c3ccc(-c4ccccc4F)nc3)cnn2c1N [Compound 3.135, ((1R,3s,5S)-3-(7-amino-3-(6-(2-fluorophenyl)pyridin-3-yl)-6-(methylsulfonyl)pyrazolo[1,5-a]pyrimidin-5-yl)-8-azabicyclo[3.2.1]octan-8-yl)(1H-pyrazol-5-yl)methanone]
IC50 ([1]; PC-3, Table 3-1, PC3 cells): 1 to 100 nM
IC50 [2, 3]: 1 to 100 nM

NC(=O)N1[C@@H]2CC[C@H]1C[C@H](c1nc3c(-c4ccc(-c5ccccc5)nc4)cnn3c(N)c1C1CC1)C2 [Compound 4.6, (1R,3s,5S)-3-(7-amino-6-cyclopropyl-3-(6-phenylpyridin-3-yl)pyrazolo[1,5a]pyrimidin-5-yl)-8-azabicyclo[3.2.1]octane-8-carboxamide]
IC50 [1, 4]: 1 to 100 nM
IC50 [2, 5]: 1 to 100 nM

CC(=O)c1c([C@@H]2C[C@H]3CC[C@@H](C2)N3C(=O)c2nnc[nH]2)nc2c(-c3cnc4c(c3)CCCC4O)cnn2c1N (stereo partly drawn) [Compound 7.58, 1-(5-((1R,3s,5S)-8-(4H-1,2,4-triazole-3-carbonyl)-8-azabicyclo[3.2.1]octan-3-yl)-7-amino-3-(8-hydroxy-5,6,7,8-tetrahydroquinolin-3-yl)pyrazolo[1,5-a]pyrimidin-6-yl)ethanone]
IC50 ([1]; PC-3, PC3 cells): 1 to 100 nM
IC50 ([2]; PC3 cells): 1 to 100 nM

CC(C)(O)c1ccc(-c2cnn3c(N)c(C4CC4)c([C@@H]4C[C@H]5CC[C@@H](C4)N5C(=O)c4nnc[nH]4)nc23)cn1 [Compound 7.39, ((1R,3s,5S)-3-(7-amino-6-cyclopropyl-3-(6-(2-hydroxypropan-2-yl)pyridin-3-yl)pyrazolo[1,5-a]pyrimidin-5-yl)-8-azabicyclo[3.2.1]octan-8-yl)(4H-1,2,4-triazol-3-yl)methanone]
IC50 ([1]; PC-3, Table 7-8, PC3 cells): 1 to 100 nM
IC50 ([2]; Homo sapiens, PC-3, Table 7-8, PC3 cells): 1 to 100 nM

CC(=O)c1c([C@@H]2C[C@H]3CC[C@@H](C2)N3C(=O)c2nnc[nH]2)nc2c(-c3ccc(CO)nc3)cnn2c1N [Compound 7.1, 1-(5-((1R,3s,5S)-8-(4H-1,2,4-triazole-3-carbonyl)-8-azabicyclo[3.2.1]octan-3-yl)-7-amino-3-(6-(hydroxymethyl)pyridin-3-yl)pyrazolo[1,5-a]pyrimidin-6-yl)ethanone]
IC50 [1, 4]: 1 to 100 nM
IC50 [2, 5]: 1 to 100 nM

CS(=O)(=O)c1c([C@H]2CC3CC[C@H](C2)N3C(=O)c2nnc[nH]2)nc2c(-c3ccc(C4CCCCC4)nc3)cnn2c1N [Compound 3.165, ((1R,3s,5S)-3-(7-amino-3-(6-cyclohexylpyridin-3-yl)-6-(methylsulfonyl)pyrazolo[1,5-a]pyrimidin-5-yl)-8-azabicyclo[3.2.1]octan-8-yl)(4H-1,2,4-triazol-3-yl)methanone]
IC50 ([1]; PC-3, Table 3-1, PC3 cells): 100 to 1000 nM
IC50 [2, 3]: 100 to 1000 nM

CS(=O)(=O)c1c([C@@H]2C[C@H]3CC[C@@H](C2)N3C(=O)c2nnc[nH]2)nc2c(-c3ccc(-c4ccc5c(c4)OC(F)(F)O5)nc3)cnn2c1N [Compound 3.53, ((1R,3s,5S)-3-(7-amino-3-(6-(2,2-difluorobenzo[d][1,3]dioxol-5-yl)pyridin-3-yl)-6-(methylsulfonyl)pyrazolo[1,5-a]pyrimidin-5-yl)-8-azabicyclo[3.2.1]octan-8-yl)(4H-1,2,4-triazol-3-yl)methanone]
IC50 ([1]; PC-3, Table 3-1, PC3 cells): 1000 to 10000 nM
IC50 [2, 3]: 100 to 1000 nM
